The source of these data is patent US5116863A, “Dibenz[b,e]oxepin derivative and pharmaceutical compositions thereof” (Kyowa Hakko Kogyo Co., Ltd., priority 1986, dated 1992).

The subject of series [1] is dd, male mice. Format: in vivo. To be noted: mice, mortality 7 days after administration. The procedure: Groups each consisting of 3 dd, male mice having body weights of 20±1 g were used, and the compound of the present invention was administered orally (po: 300 mg/kg) or intraperitoneally (ip: 100 mg/kg).
Series [2] concerns homologous PCA (passive cutaneous anaphlaxis) of rats. The series is described as follows: Homologous PCA (passive cutaneous anaphylaxis) test of rats for 48 hours, oral (antiallergic activity). The format is in vivo, Wistar male rats. To be noted: for minimal effective dose: read-out: MED (minimum effective dosage), PCA inhibition; for responders at 0.01 mg/kg: dosage 0.01 mg/kg; for responders at 0.01 mg/kg / responders at 0.1 mg/kg / responders at 1 mg/kg / responders at 10 mg/kg / responders at 100 mg/kg: read-out: Number of positive zooids in one group of 3 zooids (converted); for responders at 10 mg/kg: dosage 10 mg/kg; for responders at 100 mg/kg: dosage 100 mg/kg. The procedure:
Antiallergic activity was investigated by a homologous PCA (passive cutaneous anaphlaxis) of rats for 48 hours, where Wistar male rats having body weights of 180 to 220 g were used for sampling of antiserum and Wistar male rats having body weights of 120 to 140 g were used for the PCA test.
Anti-egg white albumin (EWA) rat serum was prepared according to Stotland and Share's method [Canad. J. Physiol. Pharmacol. 52, 1114 (1974)]. That is, 1 mg of EWA was mixed with 20 mg of aluminum hydroxide gel and 0.5 ml of mixed vaccine of pertussis, diphtheria and tetanus, and the mixture was subcutaneously administered in four portions into rat's footpad. After 14 days, blood was sampled from the carotid artery, and the serum was separated from the sampled blood, and preserved under freezing at -80° C. The potency of the antiserumin in the homologous PCA for 48 hours was 1:32.
Groups each consisting of 3 rats were used, and 0.05 ml of anti-EWA rat serum diluted with a physiological saline solution to 8 times as much was incutaneously injected each at two positions of depilated back to make the animals passively sensitised. After 47 hours, the compound of the present invention, or its solution (physiological saline solution or CMC solution) was orally administered. One hour thereafter, 0.5 ml/100 g of 1% Evan's blue physiological saline solution containing 2 mg of the antigen EWA was administered into the tail vein, and 30 minutes thereafter, the animals were sacrificed by exsanguination. Then, the skins were stripped and the amount of leaked pigment at the blue-dyed parts was measured according to the Katayama et al method [Microbiol. Immunol. 22, 89 (1978)]. That is, the blue-dyed parts were cut out by scissors, and placed in test tubes containing 1 ml of 1N KOH and incubated at 37° C. for 24 hours. Then, 9 ml of a mixture of 0.6N phosphoric acid and acetone (5:13) was added thereto, and the mixture was shaked and centrifuged at 2,500 rpm for 10 minutes. Absorbancy of the supernatant at […] was measured, and the amount of leaked pigment was quantitatively determined by the calibration curve prepared in advance. An average of measurements at the two position was made a value for one zooid, and inhibition rate for the individual zooid was calculated by the following formula: [formula]

Setting [3] is: Rattus norvegicus, minimum dosage with positive case in at least one of three rats.
Where [4] appears, read: Rattus norvegicus, po, positive = inhibition rate 50% or higher.
Setting [5] is: Rattus norvegicus, po, dosage 0.1 mg/kg, positive = inhibition rate 50% or higher.
Where [6] appears, read: Rattus norvegicus, po, dosage 1 mg/kg, positive = inhibition rate 50% or higher.

In the case of `CN(C)CC/C=C1\c2ccccc2COc2ccc(CCC(=O)O)cc21` [Compound 28 (trans), Trans-3-[11-(3-dimethylaminopropylidene)-6,11-dihydrodibenz[b,e]oxepin-2-yl]-propionic acid], in series [1], the “Acute toxicity (MLD), ip” value is recorded as greater than 100 mg/kg and the “Acute toxicity (MLD), po” value was greater than 300 mg/kg. Further, the minimal effective dose in series [2] (setting [3]) is 0.01 mg/kg. In addition, the responders at 0.001 mg/kg in series [2] (Rattus norvegicus, po, dosage 0.001 mg/kg, positive = inhibition rate 50% or higher, read-out: Number of positive zooids in one group of 3 zooids) stood at 0%. Moreover, in series [2] (setting [4]), the responders at 0.01 mg/kg is 33.3%, the responders at 10 mg/kg was 100% and the responders at 100 mg/kg is 100%. For the same molecule, the responders at 0.1 mg/kg in series [2] (setting [5]) was 66.7%. Also, the responders at 1 mg/kg in series [2] (setting [6]) was 66.7%.
`CN(C)CC/C=C1\c2ccccc2COc2ccc(CC(=O)O)cc21` [20']: the minimal effective dose in series [2] (setting [3]) stood at 0.1 mg/kg. Also, in series [2] (setting [4]), the responders at 0.01 mg/kg is 0%. Also, the responders at 1 mg/kg in series [2] (setting [6]) is 100%.
Consider `CN(C)CC/C=C1\c2ccccc2COc2ccc(CCO)cc21` [Compound 31 (trans), Trans-11-(3-dimethylaminopropylidene)-2-(2-hydroxyethyl)-6,11-dihydrodibenz[b,e]oxepin], for which, in series [1], the “Acute toxicity (MLD), ip” value was greater than 100 mg/kg and the “Acute toxicity (MLD), po” value is greater than 300 mg/kg. Further, the “Number of positive zooids in one group of 3 zooids” value in series [2] (dosage 0.1 mg/kg, positive = inhibition rate 50% or higher) is reported as 3/3. For the same molecule, in series [2] (dosage 1 mg/kg, positive = inhibition rate 50% or higher), the “Number of positive zooids in one group of 3 zooids” value is recorded as 2/3. Further, in series [2] (minimum dosage with positive case in at least one of three rats), the “MED (minimum effective dosage), PCA inhibition” value worked out at 0.1 mg/kg.
Turning to `O=C(O)c1ccc2c(c1)/C(=C\CN1CCSCC1)c1ccccc1CO2` [Compound 15, 11-(2-Thiomorpholinoethylidene)-6,11-dihydrodibenz[b,e]oxepin-2-carboxylic acid], the minimal effective dose in series [2] (setting [3]) was 100 mg/kg. Further, in series [2] (setting [5]), the responders at 0.1 mg/kg was 0%. For the same molecule, in series [2] (setting [6]), the responders at 1 mg/kg was 0%. For the same molecule, in series [2] (setting [4]), the responders at 10 mg/kg is 0% and the responders at 100 mg/kg was 100%.
With `CN(C)CC/C=C1\c2ccccc2COc2ccc(C(=O)O)cc21` [3'], the minimal effective dose in series [2] (setting [3]) was found to be 0.1 mg/kg. Moreover, in series [2] (setting [4]), the responders at 0.01 mg/kg is 0%, the responders at 10 mg/kg is 66.7% and the responders at 100 mg/kg was 100%. Moreover, the responders at 0.1 mg/kg in series [2] (setting [5]) was 33.3%. Further, the responders at 1 mg/kg in series [2] (setting [6]) is 33.3%.
For `O=C(O)c1ccc2c(c1)C(=CCN1CCOCC1)c1ccccc1CO2` [Compound 13, 11-(2-Morpholinoethylidene)-6,11-dihydrodibenz[b,e]oxepin-2-carboxylic acid], in series [1], the “Acute toxicity (MLD), ip” value is on record as greater than 100 mg/kg and the “Acute toxicity (MLD), po” value was greater than 300 mg/kg. For the same molecule, the minimal effective dose in series [2] (setting [3]) is 10 mg/kg. In addition, the responders at 0.1 mg/kg in series [2] (setting [5]) is 0%. The responders at 1 mg/kg in series [2] (setting [6]) is 0%. Besides, in series [2] (setting [4]), the responders at 10 mg/kg was 33.3% and the responders at 100 mg/kg is 100%.
With `CN(C)CC/C=C1/c2ccccc2COc2ccc(CCC(=O)O)cc21` [Compound 28 (cis), Cis-3-[11-(3-dimethylaminopropylidene)-6,11-dihydrodibenz[b,e]oxepin-2-yl]-propionic acid], in series [1], the “Acute toxicity (MLD), ip” value was greater than 100 mg/kg and the “Acute toxicity (MLD), po” value is on record as greater than 300 mg/kg. Moreover, in series [2] (setting [3]), the minimal effective dose was found to be 0.1 mg/kg. For the same molecule, in series [2] (setting [4]), the responders at 0.01 mg/kg is 0%, the responders at 10 mg/kg is 66.7% and the responders at 100 mg/kg is 100%. Moreover, the responders at 0.1 mg/kg in series [2] (setting [5]) was 33.3%. Besides, the responders at 1 mg/kg in series [2] (setting [6]) was 100%.
On to `CN(C)CC/C=C1/c2ccccc2COc2ccc(CCCO)cc21` [Compound 33, Cis-11-(3-dimethylaminopropylidene)-2-(3-hydroxypropyl)-6,11-dihydrodibenz[b,e]oxepin; Trans-11-(3-dimethylaminopropylidene)-2-(3-hydroxypropyl)-6,11-dihydrodibenz[b,e]oxepin], for which the minimal effective dose in series [2] (setting [3]) came out at 1 mg/kg. Further, the responders at 0.1 mg/kg in series [2] (setting [5]) was 0%. Also, the responders at 1 mg/kg in series [2] (setting [6]) was 33.3%. Besides, in series [2] (setting [4]), the responders at 10 mg/kg was 100% and the responders at 100 mg/kg is 100%.
